{"source": "patent US12507720B2", "about": "“Use of anthocyanin-anionic polysaccharide complex for preventing or treating influenza virus A infection” (JBKLAB CO., LTD., priority 2019, dated 2025)", "type": "physicochemical", "settings": "pH 3", "protocol": "The amount of anthocyanin was confirmed using a spectrophotometer to confirm the stability of the complex prepared in Example 1 over time. 40 ml of the anthocyanin-alginic acid complex was centrifuged at 13000 rpm for 30 minutes, and the precipitate was dispersed in PBS (pH 3 or pH 7.4). In addition, anthocyanin was prepared by dissolving thereof in PBS (pH 3 or pH 7.4). The absorbance of the complex and anthocyanin dispersed in PBS (pH 3 or pH 7.4) was measured with a spectrophotometer at each wavelength band of 513 nm or 520 nm, respectively, and the change in the absorbance value of anthocyanin was observed."}
{"substance": "anthocyanin", "values": [{"measurement": "stability (in words)", "value": "stable"}]}
